ChEMBL document CHEMBL4270597, “Donepezil-butylated hydroxytoluene (BHT) hybrids as Anti-Alzheimer's disease agents with cholinergic, antioxidant, and neuroprotective properties” (Eur J Med Chem, 2018)
Activity calls are given as the source filed them. The calls are words filed in the database; no cut-off is given here.

Assays:
[1] = molecular target: T1, Acetylcholinesterase (Homo sapiens, UniProt P22303); assay: Inhibition of human erythrocyte AChE using acetylthiocholine chloride as substrate incubated for 5 mins followed by substrate addition measured after 180 secs by Ellman's method
T1 sequence (P22303 whole entry): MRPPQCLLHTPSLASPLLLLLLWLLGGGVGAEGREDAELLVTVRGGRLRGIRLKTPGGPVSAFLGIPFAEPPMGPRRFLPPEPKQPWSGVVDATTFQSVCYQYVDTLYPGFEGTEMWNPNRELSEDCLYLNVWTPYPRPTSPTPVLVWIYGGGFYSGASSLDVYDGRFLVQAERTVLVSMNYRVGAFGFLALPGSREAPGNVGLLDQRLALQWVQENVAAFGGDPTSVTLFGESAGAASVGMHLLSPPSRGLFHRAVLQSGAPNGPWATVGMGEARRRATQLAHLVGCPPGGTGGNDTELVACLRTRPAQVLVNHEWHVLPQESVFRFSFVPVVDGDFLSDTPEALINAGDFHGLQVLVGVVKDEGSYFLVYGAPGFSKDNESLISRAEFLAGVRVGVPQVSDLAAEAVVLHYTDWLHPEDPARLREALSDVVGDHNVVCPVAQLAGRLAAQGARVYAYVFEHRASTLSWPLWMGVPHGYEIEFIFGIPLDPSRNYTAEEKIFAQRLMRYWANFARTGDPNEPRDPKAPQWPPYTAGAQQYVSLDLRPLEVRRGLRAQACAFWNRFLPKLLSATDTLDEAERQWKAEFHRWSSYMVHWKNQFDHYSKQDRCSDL

[2] = molecular target: Cholinesterase (Equus caballus) (UniProt P81908); assay: Inhibition of equine serum BuChE at 100 uM using butyrylthiocholine iodide as substrate incubated for 5 mins followed by substrate addition measured after 180 secs by Ellman's method relative to control
Cholinesterase (Equus caballus), sequence (P81908 whole entry): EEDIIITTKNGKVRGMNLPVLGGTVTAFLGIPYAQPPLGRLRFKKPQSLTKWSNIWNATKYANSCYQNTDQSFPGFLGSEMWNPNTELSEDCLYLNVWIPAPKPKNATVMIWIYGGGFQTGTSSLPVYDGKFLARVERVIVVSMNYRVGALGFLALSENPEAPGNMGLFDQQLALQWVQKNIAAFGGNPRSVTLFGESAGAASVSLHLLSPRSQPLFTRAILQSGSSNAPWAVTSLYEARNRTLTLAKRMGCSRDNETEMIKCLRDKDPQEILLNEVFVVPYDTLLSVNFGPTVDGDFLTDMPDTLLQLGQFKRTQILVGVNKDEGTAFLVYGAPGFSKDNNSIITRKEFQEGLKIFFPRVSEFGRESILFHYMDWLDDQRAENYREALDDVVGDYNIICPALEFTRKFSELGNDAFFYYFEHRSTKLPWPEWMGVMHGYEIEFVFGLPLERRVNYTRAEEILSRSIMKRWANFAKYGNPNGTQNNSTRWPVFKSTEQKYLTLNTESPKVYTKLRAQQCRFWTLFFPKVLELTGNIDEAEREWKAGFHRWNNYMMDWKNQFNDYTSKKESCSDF

[3] = molecular target: T2, Amine oxidase [flavin-containing] B (Homo sapiens, UniProt P27338); assay: Inhibition of human MAO-B using p-tyramine as substrate incubated for 15 mins followed by substrate addition measured for 20 mins by fluorescence assay
T2 sequence (P27338 whole entry): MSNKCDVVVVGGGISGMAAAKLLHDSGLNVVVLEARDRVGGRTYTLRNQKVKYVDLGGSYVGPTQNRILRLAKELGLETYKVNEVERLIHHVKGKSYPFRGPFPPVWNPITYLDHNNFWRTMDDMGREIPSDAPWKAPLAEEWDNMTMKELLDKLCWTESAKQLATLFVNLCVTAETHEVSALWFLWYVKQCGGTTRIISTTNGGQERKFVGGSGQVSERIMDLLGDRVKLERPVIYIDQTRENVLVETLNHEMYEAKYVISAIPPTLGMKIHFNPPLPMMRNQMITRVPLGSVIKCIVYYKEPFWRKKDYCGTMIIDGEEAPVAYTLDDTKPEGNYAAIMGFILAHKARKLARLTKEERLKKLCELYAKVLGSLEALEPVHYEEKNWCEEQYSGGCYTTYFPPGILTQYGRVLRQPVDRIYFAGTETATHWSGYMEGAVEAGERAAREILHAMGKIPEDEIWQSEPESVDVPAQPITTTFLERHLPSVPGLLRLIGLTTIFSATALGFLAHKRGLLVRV

[4] = Antioxidant activity assessed as trolox equivalent of AAPH-induced radical scavenging activity preincubated for 15 mins followed by AAPH addition measured every minute for 120 mins by ORAC-FL based fluorescein assay; format: functional
[5] = molecular target: T3, Amine oxidase [flavin-containing] A (Homo sapiens, UniProt P21397); assay: Inhibition of human MAO-A using p-tyramine as substrate incubated for 15 mins followed by substrate addition measured for 20 mins by fluorescence assay
T3 sequence (P21397 whole entry): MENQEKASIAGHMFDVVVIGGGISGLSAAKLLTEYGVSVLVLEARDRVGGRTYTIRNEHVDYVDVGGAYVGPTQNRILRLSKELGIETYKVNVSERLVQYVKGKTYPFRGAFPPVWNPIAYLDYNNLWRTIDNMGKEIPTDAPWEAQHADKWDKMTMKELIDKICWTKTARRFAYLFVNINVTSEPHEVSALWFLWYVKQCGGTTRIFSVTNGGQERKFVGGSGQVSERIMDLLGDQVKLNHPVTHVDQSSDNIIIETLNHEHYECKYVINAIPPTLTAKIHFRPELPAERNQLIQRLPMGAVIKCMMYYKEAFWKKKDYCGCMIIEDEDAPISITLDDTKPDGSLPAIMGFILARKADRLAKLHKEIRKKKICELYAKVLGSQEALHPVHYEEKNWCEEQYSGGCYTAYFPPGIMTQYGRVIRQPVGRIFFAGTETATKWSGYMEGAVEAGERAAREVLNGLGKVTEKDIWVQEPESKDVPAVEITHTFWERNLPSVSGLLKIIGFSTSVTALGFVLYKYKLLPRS

[6] = Antioxidant activity assessed as DPPH radical scavenging activity measured after 30 mins incubation in dark by UV-Visible spectrophotometric analysis; format: functional
[7] = Antioxidant activity assessed as ABTS radical cation scavenging activity by measuring trolox equivalent antioxidant capacity measured at 6 mins; format: functional
[8] = species on record: Homo sapiens; assay: Selectivity index, ratio of IC50 for human serum BuChE to IC50 for human erythrocyte AChE
[9] = molecular target: T4, Cholinesterase (Homo sapiens, UniProt P06276); assay: Inhibition of human serum BuChE at 100 uM using butyrylthiocholine iodide as substrate incubated for 5 mins followed by substrate addition measured after 180 secs by Ellman's method relative to control
T4 sequence (P06276 whole entry): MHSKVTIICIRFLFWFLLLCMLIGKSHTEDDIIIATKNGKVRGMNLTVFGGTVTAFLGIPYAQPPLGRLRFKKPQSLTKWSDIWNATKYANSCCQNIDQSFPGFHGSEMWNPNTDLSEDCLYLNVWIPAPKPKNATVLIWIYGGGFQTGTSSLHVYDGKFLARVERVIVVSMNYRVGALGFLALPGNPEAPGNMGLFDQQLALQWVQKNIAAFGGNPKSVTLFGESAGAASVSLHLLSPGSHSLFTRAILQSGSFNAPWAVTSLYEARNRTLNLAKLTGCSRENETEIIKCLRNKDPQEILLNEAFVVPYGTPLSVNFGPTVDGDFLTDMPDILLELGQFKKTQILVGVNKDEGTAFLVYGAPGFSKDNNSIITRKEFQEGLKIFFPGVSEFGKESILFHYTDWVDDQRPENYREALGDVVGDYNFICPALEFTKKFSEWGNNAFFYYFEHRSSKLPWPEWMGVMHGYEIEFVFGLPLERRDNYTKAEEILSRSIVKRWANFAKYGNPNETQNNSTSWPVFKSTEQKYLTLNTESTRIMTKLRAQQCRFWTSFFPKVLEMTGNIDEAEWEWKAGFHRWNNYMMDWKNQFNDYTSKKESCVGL

[10] = molecular target: Acetylcholinesterase (Electrophorus electricus, UniProt O42275); assay: Inhibition of electric eel AChE using acetylthiocholine chloride as substrate incubated for 5 mins followed by substrate addition measured after 180 secs by Ellman's method
Acetylcholinesterase (Electrophorus electricus, UniProt O42275), sequence (O42275 whole entry): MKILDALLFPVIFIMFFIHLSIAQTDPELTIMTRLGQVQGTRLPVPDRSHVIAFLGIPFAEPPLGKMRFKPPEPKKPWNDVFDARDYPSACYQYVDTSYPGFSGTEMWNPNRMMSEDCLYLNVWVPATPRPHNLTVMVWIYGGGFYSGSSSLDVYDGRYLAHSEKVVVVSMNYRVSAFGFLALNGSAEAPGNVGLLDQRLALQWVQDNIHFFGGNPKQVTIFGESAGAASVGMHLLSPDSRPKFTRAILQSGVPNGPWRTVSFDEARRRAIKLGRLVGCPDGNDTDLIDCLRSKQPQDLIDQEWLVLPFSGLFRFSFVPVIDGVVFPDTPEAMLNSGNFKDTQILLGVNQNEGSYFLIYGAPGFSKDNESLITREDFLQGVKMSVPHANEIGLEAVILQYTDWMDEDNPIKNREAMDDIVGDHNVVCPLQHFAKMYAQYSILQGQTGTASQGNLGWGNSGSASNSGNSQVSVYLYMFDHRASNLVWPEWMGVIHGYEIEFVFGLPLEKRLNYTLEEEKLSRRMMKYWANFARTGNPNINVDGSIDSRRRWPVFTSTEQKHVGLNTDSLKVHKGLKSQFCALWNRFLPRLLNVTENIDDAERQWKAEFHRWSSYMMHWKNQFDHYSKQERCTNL

[11] = system: PC-12; assay: Cytotoxicity against rat PC12 cells assessed as decrease in cell viability at 30 uM after 24 hrs by MTT assay; format: cell-based; settings: pc-12, 24 h
[12] = system: PC-12; assay: Cytotoxicity against rat PC12 cells assessed as decrease in cell viability at 20 uM after 24 hrs by MTT assay; format: cell-based; settings: pc-12, 24 h
[13] = molecular target: T4, Cholinesterase; assay: Inhibition of human serum BuChE using butyrylthiocholine iodide as substrate incubated for 5 mins followed by substrate addition measured after 180 secs by Ellman's method
[14] = molecular target: T1, Acetylcholinesterase; assay: Inhibition of human erythrocyte AChE at 100 uM using acetylthiocholine chloride as substrate incubated for 5 mins followed by substrate addition measured after 180 secs by Ellman's method relative to control
[15] = molecular target: Acetylcholinesterase (Electrophorus electricus) (UniProt O42275); assay: Inhibition of electric eel AChE at 100 uM using acetylthiocholine chloride as substrate incubated for 5 mins followed by substrate addition measured after 180 secs by Ellman's method relative to control
Acetylcholinesterase (Electrophorus electricus), sequence (O42275 24-633 limits assumed): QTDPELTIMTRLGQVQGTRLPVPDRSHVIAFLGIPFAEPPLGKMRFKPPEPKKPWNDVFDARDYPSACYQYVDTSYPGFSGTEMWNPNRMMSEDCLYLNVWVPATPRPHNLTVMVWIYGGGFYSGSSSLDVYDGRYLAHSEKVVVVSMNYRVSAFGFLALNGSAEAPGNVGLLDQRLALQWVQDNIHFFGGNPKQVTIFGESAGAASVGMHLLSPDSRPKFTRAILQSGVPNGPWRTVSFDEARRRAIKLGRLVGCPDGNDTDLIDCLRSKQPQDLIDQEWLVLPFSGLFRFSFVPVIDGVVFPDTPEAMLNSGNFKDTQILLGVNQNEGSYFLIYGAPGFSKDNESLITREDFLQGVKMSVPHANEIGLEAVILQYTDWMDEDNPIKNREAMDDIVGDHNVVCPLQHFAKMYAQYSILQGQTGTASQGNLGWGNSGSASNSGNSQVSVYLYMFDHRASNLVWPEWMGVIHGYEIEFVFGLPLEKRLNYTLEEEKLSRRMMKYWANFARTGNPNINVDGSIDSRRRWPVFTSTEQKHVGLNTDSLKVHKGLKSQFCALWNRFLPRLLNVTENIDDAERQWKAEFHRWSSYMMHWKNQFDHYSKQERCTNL

[16] = Antioxidant activity assessed as DPPH radical scavenging activity at 100 uM measured after 30 mins incubation in dark by UV-Visible spectrophotometric analysis relative to control; format: functional
[17] = molecular target: Cholinesterase (Equus caballus, UniProt P81908); assay: Inhibition of equine serum BuChE using butyrylthiocholine iodide as substrate incubated for 5 mins followed by substrate addition measured after 180 secs by Ellman's method
Cholinesterase (Equus caballus, UniProt P81908), sequence (P81908 whole entry): as the sequence (P81908 whole entry) above

[18] = system: BV-2; assay: Antineuroinflammatory activity in mouse BV2 cells assessed as inhibition of LPS-induced NO production at 10 to 30 uM after 24 hrs by Griess assay; format: functional, cell-based

Cc1ccccc1CN1CCC(CCNC(=O)/C=C/c2cc(C(C)(C)C)c(O)c(C(C)(C)C)c2)CC1
IC50 [1]: 2.51 µM
inhibition [2]: 55.9%
IC50 [3]: 7.2 µM
Activity (mmolequiv/mmol) [4]: 1.61
IC50 [5]: 69.3 µM
IC50 [6]: 65.3 µM
Activity (mmolequiv/mmol) [7]: 0.75
Ratio IC50 [8]: > 40
inhibition [9]: 30.2%
IC50 [10]: 0.87 µM

O=C(/C=C/c1ccccc1)NCCC1CCN(Cc2ccccc2)CC1
IC50 [1]: 0.45 µM
Activity (mmolequiv/mmol) [4]: 0.72
Activity [11]: Toxic
IC50 [6]: > 200 µM
Activity (mmolequiv/mmol) [7]: 0.31
Ratio IC50 [8]: 3.7
Activity [12]: Non-Toxic
IC50 ([13]; read-out: IC50): 1.67 µM
IC50 [10]: 0.55 µM

CC(C)(C)c1cc(C(=O)NCCC2CCN(Cc3ccccc3)CC2)cc(C(C)(C)C)c1O
inhibition [2]: 49.7%
inhibition [14]: 34.1%
inhibition [15]: 41.8%
IC50 [3]: 89.2 µM
Activity (mmolequiv/mmol) [4]: 1.6
Activity [16]: 49.1%
IC50 [5]: 109 µM
Activity (mmolequiv/mmol) [7]: 0.84
inhibition [9]: 15.8%

CC(C)(C)c1cc(C(=O)CNCCC2CCN(Cc3ccccc3)CC2)cc(C(C)(C)C)c1O
IC50 [1]: 1.38 µM
IC50 [17]: 48.5 µM
IC50 [3]: 92.1 µM
Activity (mmolequiv/mmol) [4]: 0.31
Activity [16]: 26.7%
IC50 [5]: 95.2 µM
Activity (mmolequiv/mmol) [7]: 0.27
Ratio IC50 [8]: 14
IC50 ([13]; read-out: IC50): 19.6 µM
IC50 [10]: 2.44 µM

Oc1ccc(/C=C/c2cc(O)cc(O)c2)cc1 [RESVERATROL]
inhibition [18]: Active
Activity (mmolequiv/mmol) [4]: 1.84
IC50 [6]: 75.1 µM
Activity (mmolequiv/mmol) [7]: 0.68

CC(C)(C)c1cc(C(=O)CNC2CCN(Cc3ccccc3)CC2)cc(C(C)(C)C)c1O
inhibition [2]: 27.2%
inhibition [14]: 43.4%
inhibition [15]: 45%
IC50 [3]: 83.4 µM
Activity (mmolequiv/mmol) [4]: 0.35
Activity [16]: 16.3%
IC50 [5]: 104 µM
Activity (mmolequiv/mmol) [7]: 0.36
inhibition [9]: 26.1%

CC(C)(C)c1cc(/C=C/C(=O)NCCC2CCN(Cc3ccc(C#N)cc3)CC2)cc(C(C)(C)C)c1O
IC50 [1]: 2.78 µM
inhibition [2]: 48.1%
IC50 [3]: 13.9 µM
Activity (mmolequiv/mmol) [4]: 1.62
IC50 [5]: 78.2 µM
IC50 [6]: 79.5 µM
Activity (mmolequiv/mmol) [7]: 0.84
Ratio IC50 [8]: > 36
inhibition [9]: 41.2%
IC50 [10]: 0.77 µM

O=C(/C=C/c1ccc(O)cc1)NCCC1CCN(Cc2ccccc2)CC1
IC50 [1]: 2.51 µM
IC50 [17]: 1.26 µM
Activity (mmolequiv/mmol) [4]: 1.81
Activity [11]: Toxic
IC50 [6]: 72.1 µM
Activity (mmolequiv/mmol) [7]: 0.55
Ratio IC50 [8]: 0.49
Activity [12]: Non-Toxic
IC50 ([13]; read-out: IC50): 1.22 µM
IC50 [10]: 0.81 µM

CC(C)(C)c1cc(CCC(=O)NC2CCN(Cc3ccccc3)CC2)cc(C(C)(C)C)c1O
inhibition [2]: 28.7%
inhibition [14]: 30.2%
inhibition [15]: 34.4%
IC50 [3]: 70.4 µM
Activity (mmolequiv/mmol) [4]: 1.62
IC50 [5]: 90.2 µM
IC50 [6]: 80.3 µM
Activity (mmolequiv/mmol) [7]: 0.68
inhibition [9]: 12.3%

CC(C)(C)c1cc(/C=C/C(=O)NCC2CCN(Cc3ccccc3)CC2)cc(C(C)(C)C)c1O
inhibition [2]: 16.6%
inhibition [14]: 28.1%
inhibition [15]: 29.1%
IC50 [3]: 11.7 µM
Activity (mmolequiv/mmol) [4]: 1.31
IC50 [5]: 48.4 µM
IC50 [6]: 75.6 µM
Activity (mmolequiv/mmol) [7]: 0.86
inhibition [9]: 21.7%

CC(C)(C)c1cc(/C=C/C(=O)NC2CCN(Cc3ccccc3)CC2)cc(C(C)(C)C)c1O
inhibition [2]: 31.5%
inhibition [14]: 27.7%
inhibition [15]: 34.3%
IC50 [3]: 33.5 µM
Activity (mmolequiv/mmol) [4]: 1.42
IC50 [5]: 42.5 µM
IC50 [6]: 71.9 µM
Activity (mmolequiv/mmol) [7]: 0.94
inhibition [9]: 9.41%

Cc1ccc(CN2CCC(CCNC(=O)/C=C/c3cc(C(C)(C)C)c(O)c(C(C)(C)C)c3)CC2)cc1
IC50 [1]: 2.01 µM
inhibition [2]: 41.4%
IC50 [3]: 8.9 µM
Activity (mmolequiv/mmol) [4]: 1.57
IC50 [5]: 70.1 µM
IC50 [6]: 60.4 µM
Activity (mmolequiv/mmol) [7]: 0.89
IC50 [13]: Not Active
IC50 [10]: 0.72 µM

CC(C)(C)c1cc(CCC(=O)NCCC2CCN(Cc3ccccc3)CC2)cc(C(C)(C)C)c1O
IC50 [1]: 3.42 µM
inhibition [2]: 42.4%
IC50 [3]: 46.9 µM
Activity (mmolequiv/mmol) [4]: 1.33
IC50 [5]: 94.1 µM
IC50 [6]: 54.5 µM
Activity (mmolequiv/mmol) [7]: 0.69
Ratio IC50 [8]: > 33
inhibition [9]: 36.5%
IC50 [10]: 2.31 µM

Cc1cc(C(C)(C)C)c(O)c(C(C)(C)C)c1 [BUTYLATED HYDROXYTOLUENE]
inhibition [18]: Active
Activity (mmolequiv/mmol) [4]: 1.57
IC50 [6]: 88.6 µM
Activity (mmolequiv/mmol) [7]: 0.59

CC(C)(C)c1cc(/C=C/C(=O)NCCC2CCN(Cc3ccc(F)cc3F)CC2)cc(C(C)(C)C)c1O
IC50 [1]: 1.78 µM
inhibition [2]: 31.2%
IC50 [3]: 12.5 µM
Activity (mmolequiv/mmol) [4]: 1.54
IC50 [5]: 70.6 µM
IC50 [6]: 62.4 µM
Activity (mmolequiv/mmol) [7]: 0.91
IC50 [13]: Not Active
IC50 [10]: 0.56 µM
